The structures appear in SMILES notation. Some results are limits rather than exact numbers.

The values below come from ChEMBL document CHEMBL4043275, “Design, synthesis and biological evaluation of phthalimide-alkylamine derivatives as balanced multifunctional cholinesterase and monoamine oxidase-B inhibitors for the treatment of Alzheimer's disease” (Bioorg Med Chem Lett, 2017).

For experiment [1], the target named is Butyrylcholinesterase (Rattus norvegicus) (UniProt Q9JKC1). Briefly: Inhibition of rat serum BChE at 50 uM using butyrylthiocholine chloride as substrate incubated for 15 mins by Ellman's method relative to control.
For experiment [2], the target named is Acetylcholinesterase (Electrophorus electricus) (UniProt O42275). Briefly: Inhibition of electric eel AChE at 50 uM using acetylthiocholine chloride as substrate incubated for 15 mins by Ellman's method relative to control. Background: DTNB colorimetry detects thiols as they appear.
Experiment [3] deals with T1, Acetylcholinesterase (Rattus norvegicus) (UniProt P37136).
T1 sequence (whole entry): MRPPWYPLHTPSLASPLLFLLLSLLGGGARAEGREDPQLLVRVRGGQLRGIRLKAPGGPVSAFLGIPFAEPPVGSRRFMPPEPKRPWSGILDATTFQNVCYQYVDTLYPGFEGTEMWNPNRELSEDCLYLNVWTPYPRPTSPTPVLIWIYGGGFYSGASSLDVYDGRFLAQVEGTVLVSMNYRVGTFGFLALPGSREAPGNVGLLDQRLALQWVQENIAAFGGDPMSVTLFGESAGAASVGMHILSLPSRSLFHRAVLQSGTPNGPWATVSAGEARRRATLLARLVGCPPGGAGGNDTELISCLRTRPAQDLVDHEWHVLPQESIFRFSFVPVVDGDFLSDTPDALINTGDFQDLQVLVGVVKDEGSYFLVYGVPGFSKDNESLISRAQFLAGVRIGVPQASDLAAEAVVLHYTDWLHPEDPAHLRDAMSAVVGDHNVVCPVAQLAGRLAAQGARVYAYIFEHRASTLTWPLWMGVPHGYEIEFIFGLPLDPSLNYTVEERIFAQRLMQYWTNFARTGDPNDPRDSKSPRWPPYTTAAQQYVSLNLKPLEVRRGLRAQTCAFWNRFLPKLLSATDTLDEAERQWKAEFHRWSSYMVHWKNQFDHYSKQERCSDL
Briefly: Inhibition of rat cortex homogenate AChE at 50 uM using acetylthiocholine chloride as substrate incubated for 15 mins by Ellman's method relative to control.

Experiment [4] deals with Cholinesterase (Equus caballus) (UniProt P81908). Briefly: Inhibition of equine serum BChE at 50 uM using butyrylthiocholine chloride as substrate incubated for 15 mins by Ellman's method relative to control.
For experiment [5], the target named is T2, Amine oxidase [flavin-containing] A (Homo sapiens, UniProt P21397).
T2 sequence (P21397 whole entry): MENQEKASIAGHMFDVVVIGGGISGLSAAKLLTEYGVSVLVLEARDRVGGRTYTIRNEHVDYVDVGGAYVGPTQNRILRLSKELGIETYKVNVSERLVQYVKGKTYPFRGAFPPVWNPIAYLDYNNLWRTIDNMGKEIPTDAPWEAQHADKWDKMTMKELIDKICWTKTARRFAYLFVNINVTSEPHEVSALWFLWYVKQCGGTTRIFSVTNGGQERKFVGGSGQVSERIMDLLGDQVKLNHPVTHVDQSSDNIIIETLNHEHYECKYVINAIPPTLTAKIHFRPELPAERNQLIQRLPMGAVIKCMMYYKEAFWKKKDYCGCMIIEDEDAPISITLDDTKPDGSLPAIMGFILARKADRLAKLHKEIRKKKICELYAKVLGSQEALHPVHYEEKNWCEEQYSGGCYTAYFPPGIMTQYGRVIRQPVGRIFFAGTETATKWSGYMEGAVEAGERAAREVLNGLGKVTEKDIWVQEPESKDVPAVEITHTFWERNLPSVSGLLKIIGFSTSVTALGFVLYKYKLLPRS
Kind of experiment: Inhibition of human recombinant MAO-A expressed in baculovirus infected BTI insect cells at 20 uM using kynuramine as substrate after 30 mins by fluorescence assay relative to control. The following applies: 0.5 h.

In experiment [6] the target is Cholinesterase (Homo sapiens, UniProt P06276). Briefly: Inhibition of human serum BChE using butyrylthiocholine chloride as substrate incubated for 15 mins by Ellman's method.
The nature of experiment [7]: Selectivity index, ratio of IC50 for equine serum BChE to IC50 for electric eel AChE.
For experiment [8], the target named is Acetylcholinesterase (Electrophorus electricus, UniProt O42275). Briefly: Inhibition of electric eel AChE using acetylthiocholine chloride as substrate incubated for 15 mins by Ellman's method.
Experiment [9] has as its target Cholinesterase (Equus caballus, UniProt P81908). Briefly: Inhibition of equine serum BChE using butyrylthiocholine chloride as substrate incubated for 15 mins by Ellman's method.
A further experiment has as its target Butyrylcholinesterase (Rattus norvegicus, UniProt Q9JKC1). Kind of experiment: Inhibition of rat serum BChE using butyrylthiocholine chloride as substrate incubated for 15 mins by Ellman's method.
For experiment [10], the target named is T3, Acetylcholinesterase (Rattus norvegicus, UniProt P37136).
T3 sequence (P37136 whole entry): T1 sequence (whole entry)
Briefly: Inhibition of rat cortex homogenate AChE using acetylthiocholine chloride as substrate incubated for 15 mins by Ellman's method.

The target of experiment [11] is T4, Amine oxidase [flavin-containing] B (Homo sapiens, UniProt P27338).
T4 sequence (P27338 whole entry): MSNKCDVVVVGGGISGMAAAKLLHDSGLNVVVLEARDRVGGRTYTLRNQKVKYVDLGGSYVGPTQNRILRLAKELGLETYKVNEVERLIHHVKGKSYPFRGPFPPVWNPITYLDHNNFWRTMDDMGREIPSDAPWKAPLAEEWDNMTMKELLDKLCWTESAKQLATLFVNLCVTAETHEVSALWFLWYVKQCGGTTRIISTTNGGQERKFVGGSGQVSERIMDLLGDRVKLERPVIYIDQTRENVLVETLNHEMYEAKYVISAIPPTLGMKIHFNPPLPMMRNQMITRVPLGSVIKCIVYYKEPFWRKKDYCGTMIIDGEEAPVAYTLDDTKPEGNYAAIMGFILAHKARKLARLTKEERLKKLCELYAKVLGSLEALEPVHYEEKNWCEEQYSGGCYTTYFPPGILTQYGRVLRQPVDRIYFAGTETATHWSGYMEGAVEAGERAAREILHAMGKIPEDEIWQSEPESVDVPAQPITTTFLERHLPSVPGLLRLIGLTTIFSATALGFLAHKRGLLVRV
Kind of experiment: Inhibition of human recombinant MAO-B expressed in baculovirus infected BTI insect cells using kynuramine as substrate after 30 mins by fluorescence assay. In kind it is cell-based.

For experiment [12], the target named is Acetylcholinesterase (Homo sapiens, UniProt P22303). Kind of experiment: Inhibition of human erythrocyte AChE using acetylthiocholine chloride as substrate incubated for 15 mins by Ellman's method.
Acetylcholinesterase (Homo sapiens, UniProt P22303), sequence (P22303 whole entry): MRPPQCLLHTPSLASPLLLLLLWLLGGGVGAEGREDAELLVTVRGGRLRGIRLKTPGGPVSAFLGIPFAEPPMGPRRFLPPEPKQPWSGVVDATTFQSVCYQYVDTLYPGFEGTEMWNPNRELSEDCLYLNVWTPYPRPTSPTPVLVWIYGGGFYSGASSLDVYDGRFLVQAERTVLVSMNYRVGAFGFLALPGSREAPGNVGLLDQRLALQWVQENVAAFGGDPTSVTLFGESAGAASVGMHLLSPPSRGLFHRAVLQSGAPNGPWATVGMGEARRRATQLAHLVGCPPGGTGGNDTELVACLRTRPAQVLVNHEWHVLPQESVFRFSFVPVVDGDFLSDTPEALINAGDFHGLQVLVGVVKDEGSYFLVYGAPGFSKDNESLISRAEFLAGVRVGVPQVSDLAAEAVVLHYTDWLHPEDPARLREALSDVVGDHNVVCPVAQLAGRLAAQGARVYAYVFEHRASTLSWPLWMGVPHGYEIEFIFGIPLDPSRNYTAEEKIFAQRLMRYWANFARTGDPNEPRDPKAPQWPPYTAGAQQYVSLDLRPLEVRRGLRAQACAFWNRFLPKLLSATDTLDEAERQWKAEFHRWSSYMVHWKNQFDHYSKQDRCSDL

Butyrylcholinesterase, sequence (Q9JKC1 whole entry): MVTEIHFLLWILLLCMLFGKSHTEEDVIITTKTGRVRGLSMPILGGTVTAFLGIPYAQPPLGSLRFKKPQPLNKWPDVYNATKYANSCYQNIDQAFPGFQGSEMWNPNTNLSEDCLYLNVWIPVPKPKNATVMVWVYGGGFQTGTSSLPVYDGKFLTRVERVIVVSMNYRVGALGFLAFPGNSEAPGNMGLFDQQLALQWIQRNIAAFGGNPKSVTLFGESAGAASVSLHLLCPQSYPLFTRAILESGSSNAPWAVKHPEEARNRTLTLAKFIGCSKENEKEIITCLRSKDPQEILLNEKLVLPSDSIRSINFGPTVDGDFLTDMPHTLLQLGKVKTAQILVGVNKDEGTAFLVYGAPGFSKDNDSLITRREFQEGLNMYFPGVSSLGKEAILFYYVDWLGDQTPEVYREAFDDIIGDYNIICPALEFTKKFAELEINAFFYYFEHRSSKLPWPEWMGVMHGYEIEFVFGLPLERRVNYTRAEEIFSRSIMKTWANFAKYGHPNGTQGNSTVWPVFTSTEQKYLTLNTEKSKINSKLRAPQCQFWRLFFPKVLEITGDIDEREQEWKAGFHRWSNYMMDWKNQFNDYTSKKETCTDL
Cholinesterase (Equus caballus, UniProt P81908), sequence (P81908 whole entry): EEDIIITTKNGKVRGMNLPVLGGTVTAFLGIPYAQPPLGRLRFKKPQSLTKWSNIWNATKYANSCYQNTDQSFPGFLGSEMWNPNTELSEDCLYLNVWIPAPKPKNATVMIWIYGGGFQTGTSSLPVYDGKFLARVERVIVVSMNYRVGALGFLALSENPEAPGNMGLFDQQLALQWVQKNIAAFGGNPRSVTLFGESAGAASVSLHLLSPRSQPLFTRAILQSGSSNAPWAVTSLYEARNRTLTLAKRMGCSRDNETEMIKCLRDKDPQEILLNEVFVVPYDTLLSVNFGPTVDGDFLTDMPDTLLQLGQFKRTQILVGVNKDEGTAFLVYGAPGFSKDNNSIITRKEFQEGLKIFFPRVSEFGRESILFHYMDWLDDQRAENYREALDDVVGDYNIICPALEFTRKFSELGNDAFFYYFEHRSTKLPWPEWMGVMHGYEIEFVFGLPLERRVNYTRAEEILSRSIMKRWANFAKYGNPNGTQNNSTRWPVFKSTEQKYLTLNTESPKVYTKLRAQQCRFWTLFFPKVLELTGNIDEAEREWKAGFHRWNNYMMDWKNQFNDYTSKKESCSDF
Cholinesterase (Homo sapiens, UniProt P06276), sequence (P06276 whole entry): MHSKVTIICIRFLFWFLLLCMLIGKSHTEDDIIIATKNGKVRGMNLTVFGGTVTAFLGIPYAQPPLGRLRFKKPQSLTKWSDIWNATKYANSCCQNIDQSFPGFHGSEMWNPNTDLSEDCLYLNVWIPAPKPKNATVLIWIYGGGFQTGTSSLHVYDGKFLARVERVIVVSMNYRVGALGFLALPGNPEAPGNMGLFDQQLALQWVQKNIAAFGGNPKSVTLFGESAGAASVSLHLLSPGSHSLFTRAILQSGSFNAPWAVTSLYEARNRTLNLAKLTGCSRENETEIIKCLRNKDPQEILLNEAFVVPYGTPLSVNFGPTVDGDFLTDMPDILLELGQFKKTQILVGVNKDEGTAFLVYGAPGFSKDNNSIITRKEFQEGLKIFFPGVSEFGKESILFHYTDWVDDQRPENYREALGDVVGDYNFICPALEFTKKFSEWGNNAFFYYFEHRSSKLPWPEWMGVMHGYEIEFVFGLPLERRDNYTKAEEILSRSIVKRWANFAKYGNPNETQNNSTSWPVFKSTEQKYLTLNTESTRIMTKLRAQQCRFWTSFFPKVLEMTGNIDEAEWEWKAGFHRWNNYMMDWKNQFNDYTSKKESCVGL
Acetylcholinesterase (Electrophorus electricus, UniProt O42275), sequence (O42275 whole entry): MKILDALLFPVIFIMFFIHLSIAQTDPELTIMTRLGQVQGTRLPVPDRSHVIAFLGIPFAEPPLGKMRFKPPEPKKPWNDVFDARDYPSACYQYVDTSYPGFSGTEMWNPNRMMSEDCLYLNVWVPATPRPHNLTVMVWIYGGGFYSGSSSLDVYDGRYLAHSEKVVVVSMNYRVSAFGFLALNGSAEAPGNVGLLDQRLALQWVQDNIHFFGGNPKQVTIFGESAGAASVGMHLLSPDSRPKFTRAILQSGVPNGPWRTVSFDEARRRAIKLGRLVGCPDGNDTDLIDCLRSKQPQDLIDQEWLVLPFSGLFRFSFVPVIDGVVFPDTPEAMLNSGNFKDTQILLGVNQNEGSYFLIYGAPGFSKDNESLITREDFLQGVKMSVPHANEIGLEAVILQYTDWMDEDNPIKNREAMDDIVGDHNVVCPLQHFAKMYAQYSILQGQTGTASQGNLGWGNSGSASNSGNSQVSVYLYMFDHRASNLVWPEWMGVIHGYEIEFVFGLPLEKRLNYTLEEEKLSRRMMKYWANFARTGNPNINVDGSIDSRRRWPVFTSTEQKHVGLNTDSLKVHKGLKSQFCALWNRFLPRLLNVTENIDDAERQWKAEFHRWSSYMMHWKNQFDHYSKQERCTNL
Butyrylcholinesterase (Rattus norvegicus), sequence (Q9JKC1 as listed by the source): as the sequence (Q9JKC1 whole entry) above
Cholinesterase (Equus caballus), sequence (P81908 whole entry): as the sequence (P81908 whole entry) above
Acetylcholinesterase (Electrophorus electricus), sequence (O42275 24-633 limits assumed): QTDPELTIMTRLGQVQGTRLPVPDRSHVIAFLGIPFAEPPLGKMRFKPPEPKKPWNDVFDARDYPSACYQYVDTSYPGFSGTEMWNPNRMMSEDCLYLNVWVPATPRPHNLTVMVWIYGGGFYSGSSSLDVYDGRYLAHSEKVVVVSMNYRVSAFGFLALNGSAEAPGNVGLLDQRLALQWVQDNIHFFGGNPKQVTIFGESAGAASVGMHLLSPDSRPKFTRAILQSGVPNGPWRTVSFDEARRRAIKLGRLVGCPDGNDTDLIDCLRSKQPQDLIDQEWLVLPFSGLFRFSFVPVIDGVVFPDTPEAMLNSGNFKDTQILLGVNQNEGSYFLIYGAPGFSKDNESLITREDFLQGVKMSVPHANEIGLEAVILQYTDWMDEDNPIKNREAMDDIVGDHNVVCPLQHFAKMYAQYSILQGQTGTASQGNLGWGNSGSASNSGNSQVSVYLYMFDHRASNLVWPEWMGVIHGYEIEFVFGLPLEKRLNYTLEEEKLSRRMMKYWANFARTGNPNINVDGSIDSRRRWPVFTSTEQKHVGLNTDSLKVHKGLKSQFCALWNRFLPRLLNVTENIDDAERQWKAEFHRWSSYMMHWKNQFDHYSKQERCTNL

As to `O=C1NC(=O)c2ccccc21`, the inhibition in experiment [1], in experiment [2], in experiment [3] and in [4] was < 5% throughout.
Take `CCN(CCCCN1C(=O)c2ccccc2C1=O)Cc1ccccc1`: the inhibition at 20 µM in experiment [5] was < 5%. In addition, the IC50 against Cholinesterase [6] came out at 15.3 µM; against Acetylcholinesterase [8] it was 0.43 µM; at Cholinesterase [9], 9.8 µM; at Butyrylcholinesterase, 13.3 µM; at Acetylcholinesterase [10], 0.6 µM; in experiment [11], 6.9 µM. Besides, the IC50 against Acetylcholinesterase [12] stood at 0.68 µM. Besides, in experiment [7], the Ratio IC50 stood at 22.8.
Regarding `C#CCN[C@@H]1CCc2ccccc21` [RASAGILINE], the IC50 was 4.76 µM at Cholinesterase [6] and 0.019 µM at Acetylcholinesterase [12].
As to `C#CCN(CCCN1C(=O)c2ccccc2C1=O)Cc1ccccc1OC`, the inhibition at 20 µM in experiment [5] is < 5%. For the same molecule, the Ratio IC50 in experiment [7] was determined as 0.43. In addition, the IC50 against Acetylcholinesterase [8] is 13.5 µM; on Cholinesterase [9], 5.8 µM; against Butyrylcholinesterase, 5.3 µM; at Acetylcholinesterase [10] it was 4.1 µM; in experiment [11] it was 7.6 µM.
Consider `CCN(CCCCCCN1C(=O)c2ccccc2C1=O)Cc1ccccc1`, for which the inhibition at 20 µM in [5] was < 5%. The concentration for half-maximal inhibition (IC50) at Cholinesterase [6] was 15.8 µM; at Acetylcholinesterase [8], 1 µM; against Cholinesterase [9], 11 µM; at Butyrylcholinesterase it was 18.1 µM; against Acetylcholinesterase [10], 3.4 µM; in [11], 12.2 µM. The molecule further gave an IC50 on Acetylcholinesterase [12] of 3.7 µM. Further, the Ratio IC50 in experiment [7] amounted to 11.
On to `C#CCN(CCCCCCN1C(=O)c2ccccc2C1=O)Cc1ccccc1OC`, for which, in experiment [5], the inhibition at 20 µM is < 5%. Also, the Ratio IC50 in experiment [7] was 2.7. Further, the IC50 against Acetylcholinesterase [8] amounted to 4.9 µM; at Cholinesterase [9] it was 13.4 µM; on Butyrylcholinesterase it was 22.5 µM; at Acetylcholinesterase [10] it was 4.3 µM; in experiment [11], 9.1 µM.
Regarding `CN(CCCN1C(=O)c2ccccc2C1=O)Cc1ccccc1`, the inhibition at 20 µM in experiment [5] was < 5%. In addition, the Ratio IC50 in [7] is 2.8. Moreover, the IC50 against Acetylcholinesterase [8] is 8.2 µM; against Cholinesterase [9], 22.9 µM; at Butyrylcholinesterase, 22.8 µM; against Acetylcholinesterase [10] it was 12.8 µM; in experiment [11], 6.1 µM.
On to `C#CCN(CCCCCN1C(=O)c2ccccc2C1=O)Cc1ccccc1OC`, for which, in experiment [5], the inhibition at 20 µM is < 5%. Further, the Ratio IC50 in [7] is 2.7. In addition, the IC50 against Acetylcholinesterase [8] was found to be 9.6 µM; at Cholinesterase [9], 26.3 µM; at Butyrylcholinesterase it was 44.4 µM; on Acetylcholinesterase [10], 14 µM; in [11], 6.3 µM.
`CC(C)N1CCN(CCCCN2C(=O)c3ccccc3C2=O)CC1`: the inhibition at 20 µM in experiment [5] is < 5%. In addition, in [7], the Ratio IC50 is 4.4. Also, the IC50 against Acetylcholinesterase [8] is 5.3 µM; against Cholinesterase [9], 23.4 µM; at Butyrylcholinesterase, 17.9 µM; on Acetylcholinesterase [10], 3.9 µM; in [11] it was 8.9 µM.
Take `CCN(CCCN1C(=O)c2ccccc2C1=O)Cc1ccccc1`: the inhibition at 20 µM in experiment [5] is < 5%. Moreover, the Ratio IC50 in experiment [7] worked out at 2.8. The IC50 was determined as 3.3 µM against Acetylcholinesterase [8]; 9.3 µM against Cholinesterase [9]; 13.2 µM against Butyrylcholinesterase; 1.1 µM against Acetylcholinesterase [10]; 6.9 µM in experiment [11].
In the case of `COc1ccccc1CN(C)CCN1C(=O)c2ccccc2C1=O`, the inhibition at 20 µM in experiment [5] was < 5%. Moreover, in experiment [7], the Ratio IC50 was found to be 1.9. Further, the IC50 against Acetylcholinesterase [8] came out at 6.2 µM; against Cholinesterase [9], 11.9 µM; on Butyrylcholinesterase, 14.8 µM; against Acetylcholinesterase [10], 13.9 µM; in experiment [11] it was 8.4 µM.
`CCN(CCCCCCN1C(=O)c2ccccc2C1=O)Cc1ccccc1OC`: in [5], the inhibition at 20 µM was < 5%. For the same molecule, the half-maximal inhibitory concentration (IC50) against Cholinesterase [6] amounted to 8.9 µM; at Acetylcholinesterase [8] it was 0.38 µM; against Cholinesterase [9], 7.3 µM; against Butyrylcholinesterase, 14.9 µM; against Acetylcholinesterase [10] it was 0.33 µM; in [11], 11.7 µM. The IC50 against Acetylcholinesterase [12] amounted to 0.59 µM. The Ratio IC50 in experiment [7] came out at 19.2.
`CC(C)N1CCN(CCCCCN2C(=O)c3ccccc3C2=O)CC1`: the inhibition at 20 µM in [5] is < 5%. Further, the Ratio IC50 in experiment [7] amounted to 4.4. In addition, the IC50 against Acetylcholinesterase [8] came out at 7.9 µM; at Cholinesterase [9], 34.5 µM; on Butyrylcholinesterase it was 16.3 µM; at Acetylcholinesterase [10] it was 5.4 µM; in [11] it was 12.6 µM.
As for `CCN(CCCN1C(=O)c2ccccc2C1=O)Cc1ccccc1OC`, the inhibition at 20 µM in [5] is < 5%. In addition, the IC50 amounted to 14.6 µM against Cholinesterase [6]; 0.9 µM against Acetylcholinesterase [8]; 11.3 µM on Cholinesterase [9]; 9.4 µM at Butyrylcholinesterase; 0.4 µM at Acetylcholinesterase [10]; 4.7 µM in experiment [11]. On Acetylcholinesterase [12], the IC50 is 4.5 µM. Besides, in experiment [7], the Ratio IC50 came to 12.6.
Consider `COc1ccccc1CN(C)CCCCN1C(=O)c2ccccc2C1=O`, for which the inhibition at 20 µM in experiment [5] was < 5%. The Ratio IC50 in experiment [7] came out at 6.1. The IC50 at Acetylcholinesterase [8] was 1.3 µM; against Cholinesterase [9] it was 7.9 µM; at Butyrylcholinesterase, 9.1 µM; on Acetylcholinesterase [10] it was 3.7 µM; in experiment [11], 11.6 µM.
With `CCN(CCCCN1C(=O)c2ccccc2C1=O)Cc1ccccc1OC`, in [5], the inhibition at 20 µM was < 5%. Further, the IC50 on Cholinesterase [6] stood at 12.9 µM; against Acetylcholinesterase [8], 0.13 µM; against Cholinesterase [9], 31 µM; against Butyrylcholinesterase it was 18.9 µM; on Acetylcholinesterase [10], 0.04 µM; in experiment [11], 9.4 µM. The IC50 against Acetylcholinesterase [12] was 0.28 µM. In addition, the Ratio IC50 in experiment [7] is 238.
`C#CCN(CCCCCN1C(=O)c2ccccc2C1=O)Cc1ccccc1`: in experiment [5], the inhibition at 20 µM is < 5%. The Ratio IC50 in experiment [7] is 4.1. In addition, the 50% inhibitory concentration (IC50) worked out at 3.4 µM against Acetylcholinesterase [8]; 13.9 µM against Cholinesterase [9]; 58.5 µM at Butyrylcholinesterase; 10.4 µM against Acetylcholinesterase [10]; 5.9 µM in experiment [11].

The term inhibition denotes the change of the read-out against control, counted positive when it falls. Usually IC50 stands for the concentration needed to halve the response being measured.
